Columns and labels:
[1] = system: HBV; test: In vivo pharmacodynamic study of hydrodynamic injection mouse HBV model (HDI-HBV) via tail vein; design: species or system Balb/c mice; conditions: mouse plasma
Description: Anti-hepatitis B virus activity of the compound of the embodiment in vivo was evaluated by HDI mice model.
Balb/c mice, 10% HP—F-CD as vehicle, test compound, RG7834, ETV (Entecavir), pAAV2-HBV 1.3mer plasmid (extracted with Qiagen EndoFree Plasmid Giga kit), main reagents including QIAamp96 DNA kit and FasStart Universal Probe Mast (ROX). The main instruments used in this experiment included centrifuge (Beckman Allegra X-15R), tissue grinder (QIAGEN-Tissue lyser II) and spectrophotometer (Thermo-NANODROP 1000).
b) On day 0, all mice were subjected to hydrodynamic injection with HBV plasmid DNA solution via tail vein. The plasmid DNA was pre-treated with sterile physiological saline before injection and stored at 4° C. until use. Plasmid DNA solution was injected via the tail vein at a dose of 8% of the body weight of the mouse within 5 seconds.
c) On the 1st day to the 7th day, the mice were administered with the compound or solvent by oral gavage for 7 days.
d) On the 1st day, 3rd day and 5th day, the blood was collected from the submandibular vein of the mice, and heparin sodium was used as an anticoagulant. The blood sample was centrifuged at 7,000×g, 4° C. to prepare the plasma for the determination of HBV DNA.
e) On the 7^h day, all mice were euthanized by CO2. The blood was collected from the heart to prepare plasma, and the liver tissue was collected. Two left hepatic lobe were isolated, the size of which was 70-100 mg, and were frozen by liquid nitrogen immediately after collection. One of the hepatic lobe was used for HBV DNA detection, and the other was used for backup.
The content of HBsAg in the serum of the mice was determined by ELISA (enzyme linked immunosorbent assay). The experimental procedure refers to the specification of HBsAg ELISA kit.
The inhibitory activity of the test compound on HBV replication on the mouse HDI model was determined by measuring the content of HBsAg in the plasma of the mice.

[2] = 14-day pre-toxicology tolerance test on rat; format: in vivo; conditions: once a day for 14 days, male rats
Description: [table] A total of 21 animals in this experiment were randomly divided into 7 groups. The animals were orally administered with the test compounds once a day for 14 consecutive days, and the toxicity was evaluated. Animal necropsy and tissue would be taken from the fixative, repaired, dehydrated, embedded, sectioned, stained and microscopically examined. These tissues included the liver, heart and lung of all animals, and spleen, stomach, duodenum, jejunum, ileum, and kidney of partial animals.

[3] = system: hepatitis B; conditions: woodchuck model, RG7834 as a single drug; cited from earlier work
[4] = system: HBV; test: Anti-HBV activity on the hepatitis B virus mouse model (AAV-HBV); format: in vivo, C57BL/6 mice; conditions: 10 mg/kg, PO
Description: The AAV vector-mediated HBV infected mouse model is a fast and efficient HBV model. Using the high hepatotropism of the AAV vector, the recombinant adeno-associated type 8 virus carrying 1.3 copies of the HBV genome (rAAV8-1.3HBV) is injected into the tail vein of mice, which can efficiently introduce the carried 1.3 copy HBV genome into hepatocytes. Due to the characteristics of the AAV viral vector, the vector mediated by it can express for a long time. The AAV/HBV model can continuously replicate HBV DNA and express HBsAg and HBeAg in the liver of the mice.
The anti-HBV efficacy of the test compound in vivo was evaluated by determining the content of HBsAg in the serum of the mice after treatment with the test compound on AAV/HBV mouse mode.
C57BL/6 mice, 10% HP-f-CD as vehicle, reference compound TDF (Tenofovir), test compound, recombinant virus rAAVS-1.3HBV, main reagents of the experiment including QIAamp96 DNA kit and TaqMan® Universal PCR Master Mix, Hepatitis B Virus Surface Antigen Detection Kit, instruments including: centrifuge (Beckman Allegra X-15R), tissue grinder (QIAGEN-Tissue lyser II) and spectrophotometer (Thermo-NANODROP 1000).
a) All mice were orally administered on the 28th day after the virus injection, and the day was set as day 0. Submaxillary blood of all mice was collected for serum collection before administration. The mice were administered once a day for four weeks.
b) Submaxillary blood of all mice was collected for serum collection twice a week, the volume of the blood collected each time was approximately 100 μL.
c) On the 28th day, all mice were euthanized and the blood was collected from the heart for serum collection.
The content of HBsAg in the serum of the mice was determined by ELISA. The experimental procedure refers to the specification of HBsAg ELISA kit.
a) The anti-HBV activity of the test compound on AAV/HBV mice model was evaluated by determining the content of HBsAg in the plasma of the mice.

## COCCCOc1cc2c(cc1OC)-c1cc(=O)c(C(=O)O)cn1[C@H](C(C)C)C2 [RG7834, reference compound]
[1]; dosing time day 1, 30 mg/kg QD gavage
  Log HBsAg (IU/mL) (Ave. value): 3.75 IU/mL
[1]; dosing time day 3, 30 mg/kg QD gavage
  Log HBsAg (IU/mL) (Ave. value): 4.08 IU/mL
[1]; dosing time day 5, 30 mg/kg QD gavage
  Log HBsAg (IU/mL) (Ave. value): 3.59 IU/mL
[1]; dosing time day 7, 30 mg/kg QD gavage
  Log HBsAg (IU/mL) (Ave. value): 1.10 IU/mL
[2]; high dose group (1000 mg/kg)
  histopathological changes associated with the test compound: mild myocardial degeneration in the heart, mild degeneration of central hepatic cells in the small lobules of the liver, mild decrease of white pulp lymphocytes in the spleen, and moderate acute inflammation of the duodenal mucosa
[2]; medium and low dose groups (300 and 100 mg/kg), heart, liver and lung examined
  histopathological changes associated with the test compound: no histopathological changes associated with the test compound were observed
[3]
  reduction of HBV-DNA: 1.7 Log
  reduction of surface antigens: 2.57 Log
[4]; day 4
  HBsAg content in the plasma of the mice: 3.54 IU/mL
[4]; day 7
  HBsAg content in the plasma of the mice: 3.58 IU/mL
[4]; day 11
  HBsAg content in the plasma of the mice: 3.70 IU/mL
[4]; day 14
  HBsAg content in the plasma of the mice: 3.49 IU/mL
[4]; day 18
  HBsAg content in the plasma of the mice: 3.70 IU/mL
[4]; day 21
  HBsAg content in the plasma of the mice: 3.52 IU/mL
[4]; day 25
  HBsAg content in the plasma of the mice: 3.50 IU/mL
[4]; day 28
  HBsAg content in the plasma of the mice: 3.66 IU/mL
[4]; day −1
  HBsAg content in the plasma of the mice: 4.56 IU/mL

Reference: patent US20200197409A1, “HEPATITIS B VIRUS SURFACE ANTIGEN INHIBITOR” (FUJIAN COSUNTER PHARMACEUTICAL CO., LTD., priority 2017, published 2020)
